Measurements reported in patent publication US20250228824A1, “COMPOSITIONS AND METHODS FOR INHIBITION OF ITO AS TREATMENT FOR THE J WAVE SYNDROMES AND HYPOTHERMIA” (Lankenau Institute for Medical Research, priority 2021, published 2025).

Columns and labels:
Type in all cases: cell-based
KV11.1 (hERG-IKr) = target: T1, KV11.1 (hERG-IKr) (Homo sapiens, UniProt Q12809); assay: Whole-cell patch clamp of IKr in HEK cells stably expressing hERG; settings: 50 μM
T1 construct: stably expressing hERG channels (NM_000238); expressed in transfected cells
Method: Human Embryonic Kidney (HEK) cells stably expressing hERG channels (NM_000238) were used to evaluate the effect of AR-787 on IKr. The HEK cells were cultured in vented flasks using standard methods. The culture media consisted of MEM α-modified, 10% FBS, 1% L-glutamine, 1% pen-strep and 0.4% G418 (Geneticin). Cells were passaged at 50% confluence.
For electrophysiological study, cells were released from culture with trypsin, rinsed with Ca^2+-free external solution and maintained on ice until used (up to 4 hr). An aliquot of cells was place in a chamber on an inverted microscope (Nikon Diaphot) and perfused with external solution at a rate of 1 ml/min at room temperature. The external solution contained in (mM): 140 NaCl, 5 KCl, 2 CaCl2, 1 MgCl2, 10 HEPES and 10 glucose at pH 7.4 (adjusted with NaOH). Membrane currents recorded with an Axopatch 200B amplifier controlled by Clampex software were digitized at a sampling rate of 10 kHz and filtered at 2 kHz. Micropipettes were fabricated from borosilicate glass and generally had resistances of 1.8-2.4 MΩ when filled with internal solution consisting of (mM): 140 KCl, 1 MgCl2, 5 Na2ATP, 10 HEPES and 10 EGTA (pH 7.3 adjusted with KOH; 300 mOsm). Pipette offset and stray capacitance were compensated with the pipette in the bath solution before seal formation. After achieving cell access, whole-cell capacitance and series resistance were compensated optimally. Series resistance prediction and correction were usually adjusted to 85% or higher leaving an uncompensated series resistance of less than 1 MΩ and voltage errors estimated to be less than 5 mV. Voltage protocols and currents were recorded on a computer for offline analysis using Clampfit and GraphPad software.
IKr was measured using a two-step protocol. Voltage steps of 4 sec duration were applied at 20 sec intervals from a holding potential of −80 mV to −60 to +40 mV in 10 mV steps, followed by a 4 sec step to −50 mV to record the tail currents. […] The step protocol consisted of a voltage step from a holding potential of −80 mV to a test potential of +10 mV for 4 sec then to −50 mV for 4 second. It was repeated at 20 sec intervals. The step protocol was maintained until the current response achieved a stable level (5-7 min). The I-V protocol was then repeated.
For analysis, the following were determined: 1) currents averaged over the last 100 ms of the first voltage clamp step (−60 to +40 mV) and 2) peak tail current during the second voltage clamp step (at −50 mV). These were divided by cell capacitance to normalize for cell size (pA/pF). The time course of tail current […] was fit with a single exponential function using Clampfit. The voltage dependence of activation was determined from tail currents by dividing current value at each voltage by the maximum value for each I-V protocol. Values of current were averaged among cells and expressed as a mean ±SEM.

CaV1.2 (ICa) = assay: Whole-cell patch clamp of ICa in canine ventricular myocytes; settings: 10 μM; at 0 mV; control −5.13+0.77; shift not statistically significant
Method: (§1) Single myocytes were isolated from coronary-perfused canine right or left ventricular wedge preparations via enzymatic dissociation. Briefly, the wedge preparations were coronary perfused with nominally Ca^+2-free Tyrode's solution for a period of 15 min. They were then subjected to enzymatic digestion in nominally Ca^2+-free solution supplemented with 0.6 mg/ml collagenase (type II; Worthington) and 0.075 mg/ml protease (type XIV; Sigma) for 25-35 min. The wedge preparation was then perfused for 15 min with a taurine buffer solution containing (in mM): 108 NaCl, 10 HEPES, 11 D-glucose, 4 KCl, 1.2 MgSO4, 1.2 NaH2PO4, 50 taurine and 0.025 CaCl2. pH was adjusted to 7.4 using NaOH. After perfusion, thin slices of tissue were cut from the epicardial surface to obtain single epicardial cells as previously described.^6
ICa was measured in canine ventricular myocytes at 37° C. ICa was elicited by application of 300 ms steps from −50 to +40 mV. Extended protocols were avoided to prevent current rundown. Internal solution contained (in mM): 120 CsCl, 1 MgCl2, 10 EGTA, 5 Mg-ATP, 10 HEPES, 5 CaCl2. pH was adjusted to 7.2 with CsOH. External solution contained (in mM): 140 NaCl, 10 HEPES, 10 D-glucose, 4 KCl, 1 MgCl2, 2 CaCl2, 2 4-AP and 0.1 BaCl2.

[1] = system: canine right ventricular epicardial myocytes; assay: Action potential recording (current clamp) in canine RV epicardial myocytes; settings: 10 μM
Method: as §1
Ito and APs were measured in isolated RV or LV myocytes. APs were measured in the current-clamp mode in the whole-cell configuration. APs were initiated using intracellular current injection and recorded continuously by means of Clampex software (Axon Instruments/Molecular Devices) at a sampling frequency of […]. Ito was measured using the Axopatch 200B-2 amplifier in V-Clamp mode.

T1 sequence (Q12809 whole entry): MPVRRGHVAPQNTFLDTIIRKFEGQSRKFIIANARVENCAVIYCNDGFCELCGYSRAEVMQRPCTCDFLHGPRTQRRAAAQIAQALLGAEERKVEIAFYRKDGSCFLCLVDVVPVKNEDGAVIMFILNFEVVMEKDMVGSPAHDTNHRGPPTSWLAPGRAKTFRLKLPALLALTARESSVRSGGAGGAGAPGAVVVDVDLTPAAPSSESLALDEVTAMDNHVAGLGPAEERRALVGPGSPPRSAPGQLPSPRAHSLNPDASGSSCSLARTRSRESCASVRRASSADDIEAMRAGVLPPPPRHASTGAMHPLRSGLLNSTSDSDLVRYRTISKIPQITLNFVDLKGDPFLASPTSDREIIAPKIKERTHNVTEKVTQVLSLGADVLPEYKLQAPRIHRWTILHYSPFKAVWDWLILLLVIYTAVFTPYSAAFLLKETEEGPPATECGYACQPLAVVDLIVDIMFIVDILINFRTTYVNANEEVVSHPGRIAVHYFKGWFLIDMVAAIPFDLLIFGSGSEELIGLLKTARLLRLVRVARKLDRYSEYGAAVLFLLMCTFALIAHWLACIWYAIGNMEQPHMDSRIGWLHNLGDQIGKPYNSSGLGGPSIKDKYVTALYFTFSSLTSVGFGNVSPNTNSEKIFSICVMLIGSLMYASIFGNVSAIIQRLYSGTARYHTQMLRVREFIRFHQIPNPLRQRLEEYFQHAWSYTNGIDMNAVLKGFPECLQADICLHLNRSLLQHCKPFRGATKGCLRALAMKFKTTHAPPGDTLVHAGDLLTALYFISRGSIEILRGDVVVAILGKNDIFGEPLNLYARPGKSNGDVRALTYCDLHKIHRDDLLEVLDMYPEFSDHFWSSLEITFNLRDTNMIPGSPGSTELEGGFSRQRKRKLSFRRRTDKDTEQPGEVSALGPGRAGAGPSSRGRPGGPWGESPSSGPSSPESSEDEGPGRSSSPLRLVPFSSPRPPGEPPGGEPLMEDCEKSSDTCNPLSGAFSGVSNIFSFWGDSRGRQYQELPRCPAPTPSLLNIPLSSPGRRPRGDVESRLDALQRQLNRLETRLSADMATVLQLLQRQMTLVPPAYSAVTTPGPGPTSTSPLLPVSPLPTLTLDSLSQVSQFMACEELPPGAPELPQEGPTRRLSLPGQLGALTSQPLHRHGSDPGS

Structure (SMILES): Cc1nc(-n2cccc2)sc1C(=O)N=c1[nH]c2ccccc2[nH]1 [AR-787, N-(1H-benzimidazol-2-yl)-4-methyl-2-pyrrol-1-yl-thiazole-5-carboxamide]
- amplitude of the developing IKr (KV11.1 (hERG-IKr)): enhanced between −60 to −20 mV and reduced above 0 mV
- rates of inactivation of IKr tail currents (KV11.1 (hERG-IKr)): significantly slowed at positive voltages
- reduction in IKr peak tail current (KV11.1 (hERG-IKr)): 50%
- shift in the voltage dependence of both developing and tail currents (IKr) (KV11.1 (hERG-IKr)): −20 mV
- shift of voltage-dependence of activation (IKr) (KV11.1 (hERG-IKr)): −25 mV
- ICa peak density (CaV1.2 (ICa)): −6.95+1.88 pA/pF
- Action potential duration (APD) [1]: tendency to abbreviate but this effect was not statistically significant
- effect on AP notch ([1]; 0.5 Hz): significantly suppressed the AP notch
